Test results as given in patent US20100179122A1 (priority 2005, published 2010).
Read-outs that look alike come from different tables or passages of the source.

Test system: acute HIV infection of T-lymphoid cells
Assay: Assay for inhibition of HIV replication (spread assay)
Format: cell-based
Conditions: read-out: IC95, spread assay
Protocol: An assay for the inhibition of acute HIV infection of T-lymphoid cells (alternatively referred to herein as the “spread assay”) was conducted in accordance with Vacca, J. P. et al., Proc. Natl. Acad. Sci. USA 1994, 91: 4096. […] The compounds set forth in the other Examples were not tested in the spread assay.

[1] = Human immunodeficiency virus 1, inhibition of acute HIV infection of T-lymphoid cells

Row | SMILES | IC95 [1] [nM] | IC95 (Human immunodeficiency virus 1, T-lymphoid) [nM]
1 | O=C(COCc1ccccc1)Nc1[nH]c2ccc(Cl)cc2c1S(=O)(=O)c1ccccc1 [Example 6, 2-(benzyloxy)-N-[5-chloro-3-(phenylsulfonyl)-1H-indol-2-yl]acetamide] | < 1000 | –
2 | CCC(=O)Nc1[nH]c2ccc(Cl)cc2c1S(=O)(=O)c1ccccc1 [Example 7, N-[5-chloro-3-(phenylsulfonyl)-1H-indol-2-yl]propanamide] | < 1000 | –
3 | O=C(Nc1[nH]c2ccc(Cl)cc2c1S(=O)(=O)c1ccccc1)C1CCC1 [Example 9, N-[5-chloro-3-(phenylsulfonyl)-1H-indol-2-yl]cyclobutanecarboxamide] | < 1000 | –
4 | O=C(CNC1CC1)Nc1[nH]c2ccc(Cl)cc2c1S(=O)(=O)c1ccccc1 [Example 12, N^1-[5-chloro-3-(phenylsulfonyl)-1H-indol-2-yl]-N^2-cyclopropylglycinamide] | < 1000 | –
5 | O=C(Cc1ccc(F)cc1)Nc1[nH]c2ccc(Cl)cc2c1S(=O)(=O)c1ccccc1 [Example 16, N-[5-chloro-3-(phenylsulfonyl)-1H-indol-2-yl]-2-(4-fluorophenyl)acetamide] | < 1000 | –
6 | O=C(CN1CCCC(F)(F)C1)Nc1[nH]c2ccc(Cl)cc2c1S(=O)(=O)c1ccccc1 [Example 17, N-[5-chloro-3-(phenylsulfonyl)-1H-indol-2-yl]-2-(3,3-difluoropiperidin-1-yl)acetamide] | < 1000 | –
7 | O=C(Nc1[nH]c2ccc(Cl)cc2c1S(=O)(=O)c1ccccc1)c1ccc(F)cc1F [Example 18, N-[5-chloro-3-(phenylsulfonyl)-1H-indol-2-yl]-2,4-difluorobenzamide] | < 1000 | –
8 | O=C(Nc1[nH]c2ccc(Cl)cc2c1S(=O)(=O)c1ccccc1)c1ccccc1F [Example 19, N-[5-chloro-3-(phenylsulfonyl)-1H-indol-2-yl]-2-fluorobenzamide] | < 1000 | –
9 | O=C(Nc1[nH]c2ccc(Cl)cc2c1S(=O)(=O)c1ccccc1)c1ccncc1 [Example 20, N-[5-chloro-3-(phenylsulfonyl)-1H-indol-2-yl]isonicotinamide] | < 1000 | –
10 | Cc1ccoc1C(=O)Nc1[nH]c2ccc(Cl)cc2c1S(=O)(=O)c1ccccc1 [Example 24, N-[5-chloro-3-(phenylsulfonyl)-1H-indol-2-yl]-3-methyl-2-furamide] | < 1000 | –
11 | O=C(Nc1[nH]c2ccc(Cl)cc2c1S(=O)(=O)c1ccccc1)c1cccc(F)c1 [Example 25, N-[5-chloro-3-(phenylsulfonyl)-1H-indol-2-yl]-3-fluorobenzamide] | < 1000 | –
12 | CCOC(=O)CNC(=O)Nc1[nH]c2ccc(Cl)cc2c1S(=O)(=O)c1ccccc1 [Example 27, ethyl N-({[5-chloro-3-(phenylsulfonyl)-1H-indol-2-yl]amino}carbonyl)glycinate] | < 1000 | –
13 | O=C(Nc1[nH]c2ccc(Cl)cc2c1S(=O)(=O)c1ccccc1)c1ccccc1 [Example 28, N-[5-chloro-3-(phenylsulfonyl)-1H-indol-2-yl]benzamide] | < 1000 | –
14 | O=C(Nc1cccc(F)c1)Nc1[nH]c2ccc(Cl)cc2c1S(=O)(=O)c1ccccc1 [Example 29, N-[5-chloro-3-(phenylsulfonyl)-1H-indol-2-yl]-N′-(3-fluorophenyl)urea] | < 1000 | –
15 | COCC(=O)Nc1[nH]c2ccc(Cl)cc2c1S(=O)(=O)c1ccccc1 [Example 34, N-[5-chloro-3-(phenylsulfonyl)-1H-indol-2-yl]-2-methoxyacetamide] | < 1000 | –
16 | O=C(Nc1ccccc1)Nc1[nH]c2ccc(Cl)cc2c1S(=O)(=O)c1ccccc1 [Example 35, N-[5-chloro-3-(phenylsulfonyl)-1H-indol-2-yl]-N′-phenylurea] | < 1000 | –
17 | O=C(Nc1ccccc1C(F)(F)F)Nc1[nH]c2ccc(Cl)cc2c1S(=O)(=O)c1ccccc1 [Example 41, N-[5-chloro-3-(phenylsulfonyl)-1H-indol-2-yl]-N′-[2-(trifluoromethyl)phenyl]urea] | < 1000 | –
18 | Cn1ccnc1CNCC(=O)Nc1[nH]c2ccc(Cl)cc2c1S(=O)(=O)c1ccccc1 [Example 42, N^1-[5-chloro-3-(phenylsulfonyl)-1H-indol-2-yl]-N^2-[(1-methyl-1H-imidazol-2-yl)methyl]glycinamide] | < 1000 | –
19 | Cc1cccc(CNC(=O)Nc2[nH]c3ccc(Cl)cc3c2S(=O)(=O)c2ccccc2)c1 [Example 43, N-[5-chloro-3-(phenylsulfonyl)-1H-indol-2-yl]-N′-(3-methylbenzyl)urea] | < 1000 | –
20 | O=C(Nc1[nH]c2ccc(Cl)cc2c1S(=O)(=O)c1ccccc1)NC1CCCC1 [Example 44, N-[5-chloro-3-(phenylsulfonyl)-1H-indol-2-yl]-N′-cyclopentylurea] | < 1000 | –
21 | CC1(CNCC(=O)Nc2[nH]c3ccc(Cl)cc3c2S(=O)(=O)c2ccccc2)COC1 [Example 45, N^1-[5-chloro-3-(phenylsulfonyl)-1H-indol-2-yl]-N^2-[(3-methyloxetan-3-yl)methyl]glycinamide] | < 1000 | –

Row | SMILES | IC95 [1] [nM] | IC95 (Human immunodeficiency virus 1, T-lymphoid) [nM]
22 | CCC(C)NC(=O)Nc1[nH]c2ccc(Cl)cc2c1S(=O)(=O)c1ccccc1 (centres unmarked) [Example 46, N-(sec-butyl)-N′-[5-chloro-3-(phenylsulfonyl)-1H-indol-2-yl]urea] | < 1000 | –
23 | O=C(Nc1[nH]c2ccc(Cl)cc2c1S(=O)(=O)c1ccccc1)C1CCCC1 [Example 47, N-[5-chloro-3-(phenylsulfonyl)-1H-indol-2-yl]cyclopentanecarboxamide] | < 1000 | –
24 | CCCCNC(=O)Nc1[nH]c2ccc(Cl)cc2c1S(=O)(=O)c1ccccc1 [Example 48, N-butyl-N′-[5-chloro-3-(phenylsulfonyl)-1H-indol-2-yl]urea] | < 1000 | –
25 | O=C(NCCc1ccccc1)Nc1[nH]c2ccc(Cl)cc2c1S(=O)(=O)c1ccccc1 [Example 49, N-[5-chloro-3-(phenylsulfonyl)-1H-indol-2-yl]-N′-(2-phenylethyl)urea] | 1000 to 10000 | –
26 | O=C(NCc1cccc(F)c1)Nc1[nH]c2ccc(Cl)cc2c1S(=O)(=O)c1ccccc1 [Example 50, N-[5-chloro-3-(phenylsulfonyl)-1H-indol-2-yl]-N′-(3-fluorobenzyl)urea] | < 1000 | –
27 | COc1cccc(CNCC(=O)Nc2[nH]c3ccc(Cl)cc3c2S(=O)(=O)c2ccccc2)c1 [Example 51, N^1-[5-chloro-3-(phenylsulfonyl)-1H-indol-2-yl]-N^2-(3-methoxybenzyl)glycinamide] | < 1000 | –
28 | O=C(NCc1ccc(F)cc1)Nc1[nH]c2ccc(Cl)cc2c1S(=O)(=O)c1ccccc1 [Example 52, N-[5-chloro-3-(phenylsulfonyl)-1H-indol-2-yl]-N′-(4-fluorobenzyl)urea] | < 1000 | –
29 | CS(=O)(=O)N1CCN(CC(=O)Nc2[nH]c3ccc(Cl)cc3c2S(=O)(=O)c2ccccc2)CC1 [Example 53, N-[5-chloro-3-(phenylsulfonyl)-1H-indol-2-yl]-2-[4-(methylsulfonyl)piperazin-1-yl]acetamide] | < 1000 | –
30 | O=C(CN1CCC(c2ccccn2)C1)Nc1[nH]c2ccc(Cl)cc2c1S(=O)(=O)c1ccccc1 (centres unmarked) [Example 56, N-[5-chloro-3-(phenylsulfonyl)-1H-indol-2-yl]-2-(3-pyridin-2-ylpyrrolidin-1-yl)acetamide] | < 1000 | –
31 | O=C(Nc1[nH]c2ccc(Cl)cc2c1S(=O)(=O)c1ccccc1)NC1CCCCC1 [Example 57, N-[5-chloro-3-(phenylsulfonyl)-1H-indol-2-yl]-N′-cyclohexylurea] | < 1000 | –
32 | O=C(Nc1[nH]c2ccc(Cl)cc2c1S(=O)(=O)c1ccccc1)NC1CC1c1ccccc1 (centres unmarked) [Example 58, N-[5-chloro-3-(phenylsulfonyl)-1H-indol-2-yl]-N′-(2-phenylcyclopropyl)urea] | < 1000 | –
33 | CC(NCC(=O)Nc1[nH]c2ccc(Cl)cc2c1S(=O)(=O)c1ccccc1)c1ccccc1 (centres unmarked) [Example 59, 2-{[5-chloro-3-(phenylsulfonyl)-1H-indol-2-yl]amino}-2-oxo-N-(1-phenylethyl)ethanamine] | < 1000 | –
34 | O=C(Nc1[nH]c2ccc(Cl)cc2c1S(=O)(=O)c1ccccc1)C1CCCCC1 [Example 60, N-[5-chloro-3-(phenylsulfonyl)-1H-indol-2-yl]cyclohexanecarboxamide] | < 1000 | –
35 | CN1CCN(CC(=O)Nc2[nH]c3ccc(Cl)cc3c2S(=O)(=O)c2ccccc2)CC1 [Example 61, N-[5-chloro-3-(phenylsulfonyl)-1H-indol-2-yl]-2-(4-methylpiperazin-1-yl)acetamide] | < 1000 | –
36 | CC(C)NC(=O)Nc1[nH]c2ccc(Cl)cc2c1S(=O)(=O)c1ccccc1 [Example 62, N-[5-chloro-3-(phenylsulfonyl)-1H-indol-2-yl]-N′-isopropylurea] | < 1000 | –
37 | O=C(COc1ccccc1)Nc1[nH]c2ccc(Cl)cc2c1S(=O)(=O)c1ccccc1 [Example 65, N-[5-chloro-3-(phenylsulfonyl)-1H-indol-2-yl]-2-phenoxyacetamide] | < 1000 | –
38 | O=C(Nc1cc(F)cc(F)c1)Nc1[nH]c2ccc(Cl)cc2c1S(=O)(=O)c1ccccc1 [Example 66, N-[5-chloro-3-(phenylsulfonyl)-1H-indol-2-yl]-N′-(3,5-difluorophenyl)urea] | < 1000 | –
39 | O=C(Nc1cccc(C(F)(F)F)c1)Nc1[nH]c2ccc(Cl)cc2c1S(=O)(=O)c1ccccc1 [Example 68, N-[5-chloro-3-(phenylsulfonyl)-1H-indol-2-yl]-N′-[3-(trifluoromethyl)phenyl]urea] | < 1000 | –
40 | O=C(NCc1c(F)cccc1Cl)Nc1[nH]c2ccc(Br)cc2c1S(=O)(=O)N1CCCC1 [Example 95, N-[5-bromo-3-(pyrrolidin-1-ylsulfonyl)-1H-indol-2-yl]-N′-(2-chloro-6-fluorobenzyl)urea] | < 1000 | –
41 | O=C(Nc1[nH]c2ccc(Br)cc2c1S(=O)(=O)N1CCCC1)N1CCC1 [Example 96, N-[5-bromo-3-(pyrrolidin-1-ylsulfonyl)-1H-indol-2-yl]azetidine-1-carboxamide] | – | 1000 to 10000
